Assay results published in ChEMBL document CHEMBL1141830, “Stereoselective total synthesis of (3R,8S)-falcarindiol, a common polyacetylenic compound from umbellifers” (J Nat Prod, 1999).
≈ marks a conversion by molar mass, not a printed value.

How the values were obtained:
Escherichia coli = assay: Antimicrobial activity against Escherichia coli DC2; format: functional
Staphylococcus aureus [1] = assay: Antimicrobial activity against methicillin-sensitive Staphylococcus aureus K147; format: functional
Staphylococcus aureus [2] = assay: Antimicrobial activity against methicillin-resistant Staphylococcus aureus SAP0017; format: functional
Bacillus subtilis = assay: Antimicrobial activity against Bacillus subtilis Vernon; format: functional
[3] = Antiproliferative activity against human MK1 cells by MTT assay; format: cell-based; conditions: read-out: ED50 (the source's name)

C=C[C@@H](O)C#CC#C[C@@H](O)/C=C\CCCCCCC [FALCARINDIOL]
MIC (Escherichia coli): 2.5 µg/mL (≈ 9.6 µM) | MIC (Staphylococcus aureus [1]): 12.5 µg/mL (≈ 48 µM) | MIC (Staphylococcus aureus [2]): 25 µg/mL (≈ 96 µM) | MIC (Bacillus subtilis): 12.5 µg/mL (≈ 48 µM) | GI50 [3]: 3.2 µg/mL (≈ 12.3 µM)
